Laboratory results published in US6211168A, “Methods for preparation and use of 1α,24 (S)-dihydroxy vitamin D2” (Bone Care International, Inc, priority 1995, dated 2001).
Read-outs that look alike come from different tables or passages of the source.

Columns and labels:
[1] = molecular target: T1, vitamin D receptor (VDR) (Homo sapiens, UniProt P11473); test: vitamin D-dependent transcriptional activation: growth hormone production in transfected COS-1 cells; assay type: cell-based; conditions: inducer molar concentration 10^-9; total minus ethanol control
T1 construct: RXR partner endogenous (monkey)
T1 sequence (P11473 1-427): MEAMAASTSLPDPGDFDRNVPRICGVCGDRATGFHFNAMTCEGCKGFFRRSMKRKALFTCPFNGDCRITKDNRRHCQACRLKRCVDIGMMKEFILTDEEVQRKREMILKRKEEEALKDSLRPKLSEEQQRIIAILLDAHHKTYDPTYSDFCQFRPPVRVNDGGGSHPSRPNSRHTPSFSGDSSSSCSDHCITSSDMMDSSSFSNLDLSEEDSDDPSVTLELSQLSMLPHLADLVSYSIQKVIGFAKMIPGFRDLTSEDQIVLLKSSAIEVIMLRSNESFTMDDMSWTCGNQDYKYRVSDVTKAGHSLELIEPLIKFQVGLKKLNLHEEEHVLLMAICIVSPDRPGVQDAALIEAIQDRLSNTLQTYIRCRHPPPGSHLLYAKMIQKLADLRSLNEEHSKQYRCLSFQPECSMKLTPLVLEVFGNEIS
Method: The biological activity in vitro of chemically synthesized 1α,24(S)-(OH)2 D2 and 1α,24(R)-(OH)2 D2 was measured using a vitamin D-dependent transcriptional activation model system in which a vitamin D receptor (VDR)-expressing plasmid pSG5-hVDR1/3and a plasmid p(CT4)^4 TKGH containing a Growth Hormone (GH)-gene, under the control of a vitamin D-responsive element (VDRE) were co-transfected into Green monkey kidney, COS-1 cells. DNA's for these two vectors were supplied by Dr. Mark Haussler, Department of Biochemistry, University of Arizona, Tucson, Ariz.
Tranfected cells were incubated with vitamin D metabolites and growth hormone production was measured.

[2] = system: 1,25-(OH)2 D3 receptor site; conditions: Ishizuka et al., Steroids 1981, 1982; cited from earlier work
[3] = system: human osteoporotic patients; conditions: humans; cited from earlier work
[4] = blood levels of metabolites in osteoporotic women administered 1α-OH-D2; assay type: in vivo, human; conditions: one day after a single 2 μg dose of 1α-OH-D2, women
Method: An increase in the production of 1α,24(S)-(OH)2 D2 relative to 1α,25-(OH)2 D2 has also been observed by the present inventors in human females who received 1α-OH-D2 as part of an investigation of that drug for the treatment of osteoporosis. Following either a single dose of 2 μg of 1α-OH-D2 or daily doses of 8 μg/day for one week, blood was collected and analyzed for the metabolites 1α,24(S)-(OH)2 D2 and 1α,25-(OH)2 D2. Lipid was extracted from the blood, and the metabolites were purified by HPLC using standard methods and quantified with the radioreceptor assay produced by Incstar (Stillwater, Minn.). One day after a single 2 μg dose, the level of 1α,24(S)-(OH)2 D2 was undetectable with the 1α,25-(OH)2 D2 level being approximately 11 pg/ml. In contrast, one day following the last dose of 8 μg, the level of 1α,24(S)-(OH)2 D2 averaged 9 pg/ml with the 1α,25-(OH)2 D2 level averaging 30 pg/ml.

[5] = assay type: in vivo, rat
Method: Vitamin D2 or 24-OH-D2 was administered (either oral or intraperitoneal supplementation) to vitamin D-deficient rats. Lipid extracts of the plasma were prepared and the metabolites purified by the method of Horst et al. (Horst, A. L., Koszewski, N. J. and Reinhardt, T. A., Biochem., 29:578-82 (1990)) described below for synthesyzing standard biological 1α,24-(OH)2 D2.
Standard biological 1α,24-(OH)2 D2 was synthesized in vitro from 24-OH-D2 by incubating 10 μg of 24-OH-D2 in flask containing 5 ml of 20% kidney homogenates made from vitamin D-deficient chicks. The product of this reaction was isolated by HPLC and identified by mass spectrometry.

C=C1/C(=C\C=C2/CCC[C@]3(C)[C@@H]([C@H](C)/C=C/[C@](C)(O)C(C)C)CC[C@@H]23)C[C@@H](O)C[C@@H]1O [1α,24(R)-(OH)2 D2, 1α,24(R)-dihydroxy vitamin D2]
Net vitamin D-inducible GH-production [1]: 36 ng/mL

C=C1/C(=C\C=C2/CCC[C@]3(C)[C@@H]([C@H](C)CC[C@@H](O)C(C)C)CC[C@@H]23)C[C@@H](O)C[C@@H]1O [1α,24(R)-(OH)2 D3, 1α,24(R)-dihydroxyvitamin D3]
binding to the 1,25-(OH)2 D3 receptor site relative to 1,25-(OH)2 D3 [2]: more tightly than does 1,25-(OH)2 D3 itself

C=C1/C(=C\C=C2/CCC[C@]3(C)[C@@H]([C@H](C)CCCC(C)C)CC[C@@H]23)C[C@@H](O)C[C@@H]1O [1α-(OH) D3, 1α-hydroxy vitamin D3]
tolerability of dosage levels of 2.0 μg/day or greater [3]: not safely obtained

C=C1/C(=C\C=C2/CCC[C@]3(C)[C@@H]([C@H](C)/C=C/[C@H](C)C(C)C)CC[C@@H]23)C[C@@H](O)C[C@@H]1O [1α-OH-D2, 1α-hydroxy vitamin D2]
blood level of metabolite 1α,24(S)-(OH)2 D2 [4]: undetectable

C=C1CC[C@H](O)C/C1=C/C=C1\CCC[C@]2(C)[C@@H]([C@H](C)/C=C/C(C)(O)C(C)C)CC[C@@H]12 (stereo partly shown) [24-OH-D2, 24-hydroxyvitamin D2]
plasma metabolite 1α,24-(OH)2 D2 found after administration ([5]; rat, in vivo): co-migrated on HPLC with the standard 1α,24-(OH)2 D2

C=C1CC[C@H](O)C/C1=C/C=C1\CCC[C@]2(C)[C@@H]([C@H](C)/C=C/[C@H](C)C(C)C)CC[C@@H]12 [vitamin D2]
plasma metabolite 1α,24-(OH)2 D2 found after administration ([5]; vitamin D-deficient rats, oral or intraperitoneal, HPLC of plasma lipid extracts): co-migrated on HPLC with the standard 1α,24-(OH)2 D2

C=C1CC[C@H](O)C/C1=C/C=C1\CCC[C@]2(C)[C@@H]([C@H](C)CCCC(C)C)CC[C@@H]12 [vitamin D3]
24-hydroxylated metabolite in plasma after administration ([5]; comparable vitamin D-deficient rats): no detectable 24-OH-D3
